The results in this text go back to US4433154A, “Bis(carboxamide) derivatives” (Shionogi & Company, Limited, priority 1981, dated 1984).

T1 sequence (P47747 whole entry): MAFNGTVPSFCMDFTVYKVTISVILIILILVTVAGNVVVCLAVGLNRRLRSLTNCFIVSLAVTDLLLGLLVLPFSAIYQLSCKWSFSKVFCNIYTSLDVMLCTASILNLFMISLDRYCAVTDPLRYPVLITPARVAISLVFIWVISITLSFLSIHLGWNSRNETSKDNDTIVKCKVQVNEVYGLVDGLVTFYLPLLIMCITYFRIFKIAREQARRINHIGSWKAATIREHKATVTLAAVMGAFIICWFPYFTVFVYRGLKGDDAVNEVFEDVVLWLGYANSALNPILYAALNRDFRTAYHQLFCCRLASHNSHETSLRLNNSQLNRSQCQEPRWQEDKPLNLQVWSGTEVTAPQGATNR

The experiment has as its target T1, histamine H2 receptor (Cavia porcellus, UniProt P47747).
T1 construct: enucleated atrium of a guinea pig; from tissue; host or cells: guinea pig atrium
Description: Histamine H2-blocking effect in enucleated guinea pig atrium (inhibition of histamine-increased pulse). The experiment is classed as cell-based. Conditions: in vitro; enucleated guinea pig atrium pretreated with drug; negative logarithm of antagonist dose shifting histamine dose-response curve corresponding to doubling of histamine concentration; read-out: pA2 (converted). From the text:
In the table 10, the symbol pA2 indicates the degree of pulse inhibition of the compounds (I) in the present invention in the enucleated atrium of a guinea pig. The assigned number of compounds in the table conforms to the number of the examples.
(Note) PA2 is an in vitro indicator of histamine H2 -blocking effect. […] The result was shown by negative logarithms of the dose of antagonist which is required to shift the dose-response curve of histamine in parallel to the side corresponding to a doubling of the concentration of histamine [Ariens, Molecular Pharmacology, vol./, Academic Press, New York (1964)].
Regarding `O=C(/C=C/C(=O)NCCCOc1cccc(CN2CCCC2)c1)NCCCOc1cccc(CN2CCCC2)c1` [Example 10, N,N'-bis{3-[3-(1-pyrrolidinylmethyl)phenoxy]propyl}fumaramide], the Kb is 53.7 nM.

On to `O=C(NCCCOc1cccc(CN2CCCC2)c1)c1ccc(C(=O)NCCCOc2cccc(CN3CCCC3)c2)cc1` [Example 11], for which the Kb was 204 nM.

With `O=C(CSCC(=O)NCCCOc1cccc(CN2CCCC2)c1)NCCCOc1cccc(CN2CCCC2)c1` [Example 12, N,N'-bis{3-[3-(1-pyrrolidinylmethyl)phenoxy]propyl}thiodiglycoldamide], the Kb was 66.1 nM.

As to `O=C(NCCCOc1cccc(CN2CCCC2)c1)c1cccc(C(=O)NCCCOc2cccc(CN3CCCC3)c2)c1` [Example 14], the Kb was 60.3 nM.
